# Experimental data taken from ChEMBL document CHEMBL4339233, “Structure-activity relationship study of antitrypanosomal chalcone derivatives using multivariate analysis” (Bioorg Med Chem Lett, 2019).
# How the values were obtained:
# Trypanosoma cruzi = experiment: Antitrypanosomal activity against Trypanosoma cruzi Y trypomastigotes infected in LLC-MK2-ATCC CCL7 cells assessed as reduction in parasite growth incubated for 24 hrs by Alamar blue dye based assay; type: functional, organism-based
# [1] = Cytotoxicity in mouse NCTC-929 cells assessed as reduction in cell viability incubated for 48 hrs by MTT assay; type: cell-based; conditions: NCTC-929 (L929) cells
# [2] = Selectivity index, ratio of CC50 for cytotoxicity in mouse NCTC-929 cells to EC50 for Antitrypanosomal activity against Trypanosoma cruzi trypomastigotes infected in LLC-MK2-ATCC CCL7 cells; type: toxicity, cell-based; conditions: read-out: Ratio CC50/EC50
Compound,EC50 (Trypanosoma cruzi) [µM],CC50 at 48 h [1] [µM],selectivity ratio [2]
CN(C)c1ccc(/C=C/C(=O)c2ccc([N+](=O)[O-])cc2)cc1,> 100,> 200,–
COc1ccc(C(=O)/C=C/c2ccc([N+](=O)[O-])cc2)cc1,> 100,> 200,–
CN(C)c1ccc(/C=C/C(=O)c2cccc(N)c2)cc1,> 100,101,–
COc1ccc(C(=O)/C=C/c2ccc(N(C)C)cc2)cc1,> 100,> 200,–
O=C(/C=C/c1ccccc1)c1ccc(-c2ccccc2)cc1,> 100,> 200,–
COc1cc(/C=C/C(=O)c2ccc(-c3ccccc3)cc2)cc(OC)c1OC,3.3,29,8.9
CN(C)c1ccc(/C=C/C(=O)c2ccc(-c3ccccc3)cc2)cc1,> 100,> 200,–
CN(C)c1ccc(/C=C/C(=O)c2ccc(Cl)cc2)cc1,> 100,> 200,–
O=C(/C=C/c1ccc2c(c1)OCO2)c1ccccc1,60.9,100,1.6
O=C(/C=C/c1ccc2c(c1)OCO2)c1ccc(Cl)cc1,60,> 200,–
O=C(/C=C/c1ccccc1)c1cccc(O)c1,26,29.9,1.1
CN(C)c1ccc(/C=C/C(=O)c2ccccc2O)cc1,> 100,50.4,–
O=C(/C=C/c1ccc2c(c1)OCO2)c1ccccc1O,> 100,140,–
O=C(/C=C/c1ccccc1)c1ccc([N+](=O)[O-])cc1,13.9,127,9.1
CN(C)c1ccc(/C=C/C(=O)c2ccccc2)cc1,73.2,117,1.6
COc1cc(CCC(=O)c2ccc(-c3ccccc3)cc2)cc(OC)c1OC,> 100,> 200,–
O=C(CCc1ccc2c(c1)OCO2)c1ccc(Cl)cc1,> 100,> 200,–
CN(C)c1ccc(CCC(=O)c2cccc(O)c2)cc1,> 100,> 200,–

Compound,EC50 (Trypanosoma cruzi) [µM],CC50 at 48 h [1] [µM],selectivity ratio [2]
C=CCOc1ccccc1C(=O)/C=C/c1ccccc1,10.6,77.6,7.3
C=CCOc1ccccc1C(=O)/C=C/c1ccc2c(c1)OCO2,18.9,82.3,4.3
O=C(CCc1ccccc1)c1ccc([N+](=O)[O-])cc1,> 100,> 200,–
O=C(/C=C/c1ccc2c(c1)OCO2)c1ccc([N+](=O)[O-])cc1,> 100,> 200,–
O=C(/C=C/c1ccc2c(c1)OCO2)c1cccc(O)c1,26.5,24.5,1
CN(C)c1ccc(/C=C/C(=O)c2cccc(O)c2)cc1,28.6,> 200,> 7
COc1ccc(C(=O)/C=C/c2ccc(Cl)cc2)cc1,> 100,120,–
COc1ccc(C(=O)/C=C/c2ccc3c(c2)OCO3)cc1,> 100,> 200,–
COc1cc(/C=C/C(=O)c2ccccc2)cc(OC)c1OC,18.4,27.3,1.5
Oc1ccccc1C(O)CCc1ccccc1 (racemic),> 100,> 200,–
O=[N+]([O-])c1ccc(C(O)CCc2ccccc2)cc1 (racemic),> 100,> 200,–
OC(CCc1ccc2c(c1)OCO2)c1ccc(Cl)cc1 (racemic),> 100,> 200,–
COc1cc(CCC(O)c2ccc(-c3ccccc3)cc2)cc(OC)c1OC (racemic),28.3,95.6,3.4
CN(C)c1ccc(CCC(O)c2cccc(O)c2)cc1 (racemic),> 100,> 200,–
O=C(/C=C/c1ccccc1)c1ccccc1O [2'-HYDROXYCHALCONE],28.8,79.5,2.8
COc1ccc(C(=O)/C=C/c2ccccc2)cc1 [4'-METHOXYCHALCONE],> 100,50.4,–
O=C(Cn1ccnc1[N+](=O)[O-])NCc1ccccc1 [BENZNIDAZOLE],16.5,> 200,–
O=C(/C=C/c1ccccc1)c1ccccc1 [CHALCONE],26.9,89.3,3.3
